PubChem BioAssay (NCI)
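Briefly, cells in 96-well plates were exposed to five compound concentrations for 48 h, and endpoints were estimated by linear interpolation. TGI denotes the concentration required for complete inhibition of growth.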

Tests used:
Experiment in all cases: NCI anticancer screen, dose series, 48 h
786-0 renal = tested on: 786-0 renal
K-562 leukemia = tested on: K-562 leukemia
M14 melanoma = tested on: M14 melanoma
RPMI-8226 leukemia = tested on: RPMI-8226 leukemia
SF-268 CNS = tested on: SF-268 CNS
SK-MEL-28 melanoma = tested on: SK-MEL-28 melanoma
SK-MEL-5 melanoma = tested on: SK-MEL-5 melanoma
SN12C renal = tested on: SN12C renal
T-47D breast = tested on: T-47D breast
HOP-92 NSCLC = tested on: HOP-92 NSCLC

Row | SMILES | TGI (786-0 renal) | TGI (K-562 leukemia) | TGI (M14 melanoma) | TGI (RPMI-8226 leukemia) | TGI (SF-268 CNS) | TGI (SK-MEL-28 melanoma) | TGI (SK-MEL-5 melanoma) | TGI (SN12C renal) | TGI (T-47D breast) | TGI (HOP-92 NSCLC)
1 | N#Cc1[nH]c(=O)n(-c2ccc(Cl)cc2)c1N | > 10 µM | > 10 µM | > 10 µM | > 10 µM | > 10 µM | > 10 µM | > 10 µM | > 10 µM | > 10 µM | –
2 | Cc1csc2nc(-c3ccc([N+](=O)[O-])cc3)c(/C=N/N=C(N)N)n12 | 3.24 µM | – | 3.41 µM | 4.12 µM | 3.29 µM | 3.23 µM | 3.96 µM | 3.28 µM | > 100 µM | 2.22 µM
3 | COC(=O)CC1(CNC(=O)OCc2ccccc2)OCCO1 | > 100 µM | > 100 µM | > 100 µM | > 100 µM | – | > 100 µM | > 100 µM | > 100 µM | – | > 100 µM
4 | CCOc1ccc2c(c1)/C(=C(\C(Cl)=C(Cl)Cl)[N+](=O)[O-])N2 | > 100 µM | > 100 µM | > 100 µM | > 100 µM | > 100 µM | > 100 µM | – | > 100 µM | > 100 µM | –
5 | CCC1CC2CN3CCc4c([nH]c5c(-c6c(OC)ccc7c8c([nH]c67)[C@]6(C(=O)OC)CC7CC(CC)C6N(CC8)C7)c(O)ccc45)[C@](C(=O)OC)(C2)C13 (stereo not given in full) | 28 µM | 27 µM | 78.2 µM | – | 32.9 µM | 29.9 µM | 27.4 µM | – | 23 µM | 26.6 µM
6 | Cc1cc2[nH]c3c(C#N)c(-c4ccccc4)c(N=Nc4cccc(C(F)(F)F)c4)c(=O)n3c2cc1C | > 100 µM | – | > 100 µM | > 100 µM | > 100 µM | > 100 µM | 51.8 µM | > 100 µM | > 100 µM | –
7 | O=C1c2ccccc2CC12Cc1cc3c(cc1C2=O)CCC3 (stereo not given) | > 100 µM | > 100 µM | > 100 µM | > 100 µM | > 100 µM | > 100 µM | > 100 µM | – | > 100 µM | > 100 µM
8 | O=C(N/N=C1\CCc2ccccc2C1)N/N=C1\CCc2ccccc2C1 | > 10 µM | > 10 µM | > 10 µM | > 10 µM | > 10 µM | – | – | > 10 µM | > 10 µM | –
9 | CC1C(c2ccc3c(c2)OCO3)c2cc3c(cc2OC1N1CCCC1)OCO3 (stereo not given) | > 100 µM | 61.4 µM | 57.6 µM | 73.2 µM | > 100 µM | > 100 µM | 47.2 µM | > 100 µM | > 100 µM | –
10 | COc1cc(N=NN(C)C)c(C(C)c2c3cc(OC)c(OC)cc3cc[n+]2C)cc1OC (stereo not given) | > 100 µM | > 100 µM | > 100 µM | 70.4 µM | > 100 µM | – | 56.8 µM | > 100 µM | 76.2 µM | –
11 | CC(=O)c1ccc(Oc2ccc(/C(C)=N\N=C(N)N)cc2)cc1 | – | – | 4.76 µM | 8.7 µM | 16.1 µM | 17.4 µM | 6.98 µM | 13.4 µM | – | 13.8 µM
12 | CCP(=O)(CC)C(Cl)(Cl)C(O)C(C)(C)C (stereo not given) | – | > 100 µM | > 100 µM | > 100 µM | – | > 100 µM | > 100 µM | > 100 µM | > 100 µM | > 100 µM
13 | CC(C)(C)[Si](C)(C)OCCCC#CCO | – | > 100 µM | > 100 µM | > 100 µM | > 100 µM | > 100 µM | > 100 µM | > 100 µM | – | –
